Test systems include XF 498 CNS; KM20L2 colon; RXF-631 renal; HOP-18 NSCLC.
Test in all cases: NCI anticancer screen, dose series, 48 h

Molecules are shown by their SMILES.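 48-hour exposure; five concentrations; linearly interpolated endpoints. TGI: total growth inhibition.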

For the compound `CCOC(=O)C12CCC(=O)C=C1[C@@H](C)C(=O)CC2` (stereo not given in full), the TGI with XF 498 CNS and with KM20L2 colon was greater than 100 µM each time.
`CC(C)(C)N1C(C(=O)c2ccccc2)C1c1ccccc1` (stereo not given) displayed a TGI with RXF-631 renal greater than 100 µM.
On to `C#CCOc1c(C(=O)OCC)c(=O)n(C)c2ccccc12`, for which the TGI in the assay on HOP-18 NSCLC, in the assay with XF 498 CNS, with RXF-631 renal and in the assay with KM20L2 colon was greater than 100 µM each time.
Take `CC(=O)OC(C)C1C2=C(C(=O)CC1(C)O)C(=O)c1c(ccc(-c3ccc4c(c3O)C(=O)C3=C(C4=O)C(C(C)OC(C)=O)C(C)(O)CC3=O)c1O)C2=O` (stereo not given): the TGI turned out to be 1.74 µM in the assay with HOP-18 NSCLC and 4.59 µM in the assay on KM20L2 colon.
As to `NC(=O)C(N)=O`, the TGI in the assay with HOP-18 NSCLC, with XF 498 CNS and in the assay on KM20L2 colon was greater than 100 µM each time.
In turn, `COc1ccc(C[C@H](N)C(=O)NC2C(CO)OC(n3cnc4c(N(C)C)ncnc43)C2O)cc1` (stereo not given in full) yielded a TGI in the assay with XF 498 CNS of 0.166 µM.
Consider `N#CN=C(N)NC(=O)/C=C/C=C/c1ccc(Cl)cc1`, for which the TGI in the assay with HOP-18 NSCLC and in the assay on KM20L2 colon was greater than 100 µM throughout.

These data come from PubChem BioAssay (NCI).
